The values that follow are results of earlier work, collected in patent US20080069909A1, “MENOPAUSE DISORDER SYNERGISTIC PHYTO-NUTRACEUTICAL COMPOSITION” (priority 2006, published 2008).

Where two headings read alike, the source gives them in different places.

The subject of series [1] is bacterial resistance mechanism (multidrug pump).
The target in the next series is beta-estrogenic receptor (Homo sapiens, UniProt Q92731).
beta-estrogenic receptor, sequence (Q92731 whole entry): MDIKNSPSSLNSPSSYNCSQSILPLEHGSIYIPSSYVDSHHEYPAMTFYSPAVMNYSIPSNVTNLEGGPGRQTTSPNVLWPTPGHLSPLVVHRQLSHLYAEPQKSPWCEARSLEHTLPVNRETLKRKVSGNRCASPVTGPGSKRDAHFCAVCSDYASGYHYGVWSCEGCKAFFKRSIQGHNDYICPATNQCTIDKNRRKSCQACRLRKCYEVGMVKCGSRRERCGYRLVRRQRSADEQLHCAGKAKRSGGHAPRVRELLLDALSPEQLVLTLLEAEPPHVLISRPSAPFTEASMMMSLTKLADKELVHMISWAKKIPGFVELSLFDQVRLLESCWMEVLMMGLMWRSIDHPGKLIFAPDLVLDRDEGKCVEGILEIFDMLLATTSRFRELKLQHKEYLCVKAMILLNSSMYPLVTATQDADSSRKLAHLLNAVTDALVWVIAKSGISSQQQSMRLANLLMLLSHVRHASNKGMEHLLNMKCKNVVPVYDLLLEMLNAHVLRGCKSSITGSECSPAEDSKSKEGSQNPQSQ

On to `COc1cc([C@H]2Oc3cc(-c4cc(=O)c5c(O)cc(O)cc5o4)cc(OC)c3O[C@@H]2CO)ccc1O` (racemic) [5′-MHC, 5′-methoxyhydnocarpin], for which, in series [1] (by the action of 5′-MHC), the “activity of herbal Berberine alkaloids” value is recorded as “strongly potentiated”. Further, the “accumulation of berberine in the cells” value in series [1] (in the presence of 5′-MHC) is reported as “strong increase”.
As to `COc1cc2oc(-c3ccc(O)cc3)c(OC)c(=O)c2c(O)c1OC` [Penduletin], the receptor ligand result at beta-estrogenic receptor is “specific ligands”.
Regarding `CCCCC/C=C\C/C=C\CCCCCCCC(=O)O` [Linoleic acid], the “binding to estrogen receptors” value in the series with estrogen receptors is reported as “can bind to estrogen receptors”. Besides, the “induction of estrogen inducible genes” value in the series on estrogen inducible genes is on record as “induce certain estrogen inducible genes”.
As for `O=c1c(-c2ccc(O)cc2)coc2c([C@@H]3O[C@H](CO)[C@@H](O)[C@H](O)[C@H]3O)c(O)ccc12` [puerarin], the estrogen-like effect result is reported as “weak estrogen-like effect” with estrogen receptor (estrogen-deficiency animals), “antiestrogen-like effect” in the series on estrogen receptor (high-estrogen-level animals) and “no effect” in the series on estrogen receptor (normal-estrogen level animals).
With `O=c1cc(-c2ccc(O)cc2)oc2cc(O)cc(O)c12` [apigenin], on beta-estrogenic receptor, the receptor ligand result was “specific ligands”.
